Values joined by “and” are separate entries in the source; they are usually repeats but may differ in a detail not shown here. Equal values may be shown once.
What was measured:
CCL-119 cells [1] = test: Mode of cell death, Annexin V-FITC/PI staining (flow cytometry); assay type: cell-based; conditions: for Early Apoptosis (Q4) / Late Apoptosis (Q2) / Necrosis (Q1) / Viable (Q3): 24 hours at IC50, single replicates n1-n3; for cell death through apoptosis (population of cells): 24 hours, treated at IC50, early + late apoptosis
Procedure: The mode of cell death can be observed through the Annexin V-FITC/PI staining (BD, USA). The result of this test is either apoptosis or necrosis. […] VCR was used as a positive control, while cells without any treatment were used as a negative control. Then, the plate was incubated for 24 hours. After the incubation, the cell suspension in each well was collected into different Eppendorf tubes. The tubes were then centrifuged for 5 minutes at 1500 rpm at 4°C. After the centrifuge, the supernatant in the tubes was removed, and the cell pellets were washed twice with cold PBS. Then, centrifuge the tubes again and remove the supernatant. Next, 100 µL of Annexin V binding buffer was resuspended in each tube, and 5 µL Annexin V-FITC was pipetted into the tube to stain the cells for 15 minutes at room temperature, dark. After that, 5 µL of propidium iodide was piped into the tube for 5 minutes. The staining process is done in dark conditions. Lastly, the sample was transferred into the Falcon tube, and each tube was resuspended in 400 µL of Annexin V binding buffer. The sample was analyzed using a flow cytometer (BD FACS Canto II) within one hour.

WIL2-NS cells = test system: WIL2-NS cells; set-up: method as in Rasli et al. (2023); conditions: non-cancerous cells; 24 hours of exposure; graph referred to earlier paper; ref Rasli et al. (2023); cited from earlier work
CCL-119 cells [2] = test: MTT cytotoxicity assay; conditions: for cell viability at 0.31 µM / cell viability at 0.63 µM / cell viability at 1.25 µM / cell viability at 2.50 µM / cell viability at 5.00 µM / Selectivity Index (SI): 24 hours; for cell viability at 0.31 µM / cell viability at 0.63 µM / cell viability at 1.25 µM / cell viability at 2.50 µM / cell viability at 5.00 µM: single replicates n1-n3, untreated = 100.00; for cell viability at 2.50 µM: 2.5 µM; for IC50: read-out: IC50 (µM) CCL-119, 24 hours of exposure, mean ± SEM, n = 3; for Selectivity Index (SI): IC50 WIL2-NS / IC50 CCL-119
Procedure: The T-acute lymphoblastic leukemia cell line, CCRF-CEM (CCL-119™), and a non-cancerous cell, WIL2-NS (CRL-8155™), were purchased from the American Type Culture Collection (ATCC). Both are suspension types of cells and were cultured in Roswell Park Memorial Institute Medium 1640 (RPMI-1640) (Sigma-Aldrich), supplemented with 10% Fetal Bovine Serum (FBS) (Capricorn Scientific) and 1% penicillin-streptomycin (Nacalai Tesque) to obtain the complete growth medium and were incubated at 37 °C with a 5% CO2 incubator. Both suspension cells are used for tests when the cells’ passage becomes passage 3–10 (maximum).
All stock solutions of the organotin (IV) dithiocarbamate compounds were prepared at 10 mM and dissolved in dimethyl sulphoxide (DMSO) (ChemAR®). The stock solutions were stored at 4°C; fresh dilutions were made by adding the RPMI-1640 medium before the experiment. The dilution is carried out using the serial dilution method to obtain the desired concentrations, which are 5 µM, 2.5 µM, 1.25 µM, 0.63 µM, 0.32 µM, and 0.16 µM in this study. Vincristine (VCR) is used as a positive control in this study.
Both CCL-119 and WIL2-NS cells were seeded in a 96-well plate at a final concentration of 5 x 10^5 cells/well and treated with 5 µM, 2.5 µM, 1.25 µM, 0.63 µM, 0.32 µM, and 0.16 µM of organotin (IV) dithiocarbamate compound for 24 hours at 37°C with 5% CO2. VCR was used as a positive control in this study, while cells without treatment were used as a negative control. After 24 hours of exposure, 20 µL of MTT (Merck) salt solution was added into each well and incubated for another 4 hours. The plate was wrapped with aluminium foil as MTT salt is light sensitive. After 4 hours, the purple crystal formazan was formed. All the medium was removed carefully from each well, and 200 µL DMSO was added to each well to dissolve the purple formazan crystal. Then, the plates were incubated for an additional 15 minutes. The results were analyzed and recorded using an ELISA microplate reader at 570 nm. The data was then plotted into a graph, and IC50 values were determined.
The selectivity index (SI) is determined by dividing the cytotoxic activity (IC50 value) of each compound on a non-cancerous cell line (WIL2-NS) by the leukemia cell line (CCL-119). […] WIL2- NS cell lines were selected as the comparator because it is a non-cancerous human B lymphoblast cell line, which is like CCL-119 (T-lymphoblastic leukemia), derived from lymphocytes. This choice ensures that comparisons are made between biologically similar cell types, minimizing variability that could arise from differences in tissue origin or lineage.

CCL-119 cells [3] = test: Cell cycle analysis (PI/RNase staining); assay type: cell-based; conditions: for cells in G0/G1 phase / cells in G2/M phase / cells in S phase: 24 hours at IC50, single replicates n1-n3; for Phases of Cell Cycle Arrest: 24 hours at IC50 concentrations
Procedure: The cells were cultured and seeded in a 6-well plate at 1 x 10^6 cells/mL. VCR was used as a positive control, and untreated cells were used as a negative control in this assay. The concentration of the compounds and VCR was followed by IC50 values that were taken from the MTT assay.
After 24 hours of incubation, all cells in the plate were transferred to the Eppendorf tube and centrifuged for 5 minutes at 4°C at 1500 rpm. After centrifuging, the supernatant was removed, and cells were washed with 500 µL cold PBS three times. The pellet was fixed by using 70% ethanol overnight at −20°C. Next, the samples were stained with 500 µL of PI/RNase staining buffer and incubated for 15 minutes. The samples were then transferred into Falcon tubes. The data was recorded using a flow cytometer and analyzed using ModFit LT software.

CCL-119 cells [4] = test: Alkaline comet assay; assay type: cell-based; conditions: for % DNA intensity / Tail moment / DNA damage class / percentage of DNA intensity in the tail: 1 hour of exposure
Procedure: VCR was used as a positive control, and untreated cells were used as a negative control in this assay. The cells were incubated for 1 hour. After incubation, cells in each well were transferred to the Eppendorf tube to centrifuge for 5 minutes at 4°C by using a refrigerated microcentrifuge. The supernatant was removed, and the samples were washed with 1 mL of cold PBS. This process was repeated 3 times. After completion of the process, the supernatant was removed, and the pellet was left for a while on top of the ice while preparing the slide.
About 140 µL of normal melting agar (NMA) is pipetted on top of the fully frosted slide, and a cover slip is put on the agar for 5 minutes or until the agar fully solidifies. After that, the cover slip was removed, and 80 µL of low melting agar (LMA) was added to an Eppendorf tube containing the pellet of cells. The suspension was then transferred into a frosted slide with NMA agar. The cover slip was then put back on top of the frosted slide for 10 minutes or until dry. Next, the slide was transferred into a Coplin jar that contained lysis buffer solution and Triton X-100. The slides were then incubated at 4°C overnight. The slides were arranged on an electrophoresis tank filled with electrophoresis buffer for 20 minutes. Electrophoresis is done for another 20 minutes at 25 V with 300 mA. The slides were washed with a neutralization buffer solution 3 times at a 5-minute time interval. Finally, 30 µL of ethidium bromide (50 µg/mL) was added, and the slide was observed by using fluorescence microscopy (OLYMPUS BX51TR). CometScore software is used to analyze the DNA damage of the cells. The comet assay was performed under alkaline conditions (pH > 13) to detect both single- and double-strand DNA breaks.

SMILES	Early Apoptosis (Q4) (CCL-119 cells [1])	Late Apoptosis (Q2) (CCL-119 cells [1])	Necrosis (Q1) (CCL-119 cells [1])	Viable (Q3) (CCL-119 cells [1])	cell death through apoptosis (population of cells) (CCL-119 cells [1]) [%]	IC50 (WIL2-NS cells) [µM]	cell viability at 0.31 µM (CCL-119 cells [2])	cell viability at 0.63 µM (CCL-119 cells [2])	cell viability at 1.25 µM (CCL-119 cells [2])	cell viability at 2.50 µM (CCL-119 cells [2])	cell viability at 5.00 µM (CCL-119 cells [2])	IC50 (CCL-119 cells [2]) [µM]	cells in G0/G1 phase (CCL-119 cells [3])	cells in G2/M phase (CCL-119 cells [3])	cells in S phase (CCL-119 cells [3])	DNA damage / genotoxic effect (in words) (CCL-119 cells [4])	% DNA intensity (CCL-119 cells [4]; single replicates n1-n3)	Tail moment (CCL-119 cells [4]; single replicates n1-n3)	Selectivity Index (SI) (CCL-119 cells [2])	Tail moment (CCL-119 cells [4]; mean ± SEM) [A.U]	other results
CC(C)N(C(=S)[S][Sn]([CH3])([CH3])[S]C(=S)N(C(C)C)C(C)C)C(C)C [ODTC 6, dimethyltin (IV) diisopropyl dithiocarbamate]	44.7% and 48.9% and 45.6%	33.5% and 23.8% and 26.2%	0.1% and 0.3% and 0.2%	21.6% and 27% and 28.1%	74.2	5 ± 1.04	58.47% and 122.11% and 74.00%	54.60% and 100.55% and 42.63%	68.83% and 73.56% and 74.68%	43.76% and 67.94% and 56.55%	56.86% and 66.74% and 57.64%	3.1 ± 1.08	65.00% and 60.00% and 55.00%	4.80% and 5.00% and 2.80%	30.20% and 35.00% and 42.20%	no DNA damage	4.005% and 4.8% and 5.931%	3.51 A.U and 4.102 A.U and 5.014 A.U			
C=CCN(CC=C)C(=S)[S][Sn]([S]C(=S)N(CC=C)CC=C)([c]1ccccc1)[c]1ccccc1 [ODTC 2, diphenyltin (IV) diallyl dithiocarbamate]	36.1% and 39.2% and 31.1%	31.5% and 32.9% and 28.1%	1% and 0.6%	31.4% and 27% and 40.2%	66.3	0.52 ± 0.14	49.85% and 27.71% and 26.10%	26.34% and 15.19% and 17.94%	29.61% and 16.46% and 16.39%	28.76% and 19.14% and 15.77%	31.88% and 17.53% and 10.93%	0.22 ± 0.04	51.19% and 55.53% and 53.01%	1.93% and 1.68% and 4.38%	46.88% and 42.78% and 42.61%	caused detectable DNA damage	9.179% and 9.419% and 11.9522%	5.421 A.U and 3.237 A.U and 11.8306 A.U	2.36	6.83 ± 2.58	DNA damage class (CCL-119 cells [4]): class 2; percentage of DNA intensity in the tail (CCL-119 cells [4]; mean ± SEM): 10.18 ± 0.89%
CC(C)N(C(=S)[S][Sn]([S]C(=S)N(C(C)C)C(C)C)([c]1ccccc1)[c]1ccccc1)C(C)C [ODTC 1, diphenyltin (IV) diisopropyl dithiocarbamate]	45.2% and 37.2% and 40.2%	34.7% and 29.3%	0.2% and 1% and 0.6%	28.4% and 29.5% and 29.9%	77.6	1.39 ± 0.46	68.12% and 70.47% and 62.95%	46.30% and 50.11% and 43.95%	30.25% and 39.66% and 27.67%	11.95% and 23.57% and 13.38%	8.78% and 22.56% and 11.96%	0.56 ± 0.04	44.44% and 52.78% and 46.11%	0.17% and 1.28% and 8.00%	55.38% and 45.94% and 45.89%	highest genotoxic effects	31.5757% and 23.3927% and 27.534%	74.8179 A.U and 67.3969 A.U and 63.5391 A.U	2.48	68.58 ± 3.31	Phases of Cell Cycle Arrest (CCL-119 cells [3]): S phase; DNA damage class (CCL-119 cells [4]): class 3; percentage of DNA intensity in the tail (CCL-119 cells [4]; mean ± SEM): 27.50 ± 2.36%
C=CCN(CC=C)C(=S)[S][Sn]([c]1ccccc1)([c]1ccccc1)[c]1ccccc1 [ODTC 4, triphenyltin (IV) diallyl dithiocarbamate]	41.4% and 46.5% and 27%	15.2% and 19.2% and 9.9%	0.2% and 0.1%	43.2% and 34.2% and 63%		0.67 ± 0.14	30.40% and 42.75% and 41.34%	24.51% and 37.25% and 30.23%	26.67% and 22.56% and 24.61%	25.39% and 26.40% and 25.55%	20.16% and 12.33% and 18.27%		45.09% and 46.03% and 29.64%	8.07% and 7.1% and 0%	46.84% and 46.87% and 70.36%		12.9244% and 13.7623% and 16.0541%	29.2637 A.U and 27.4848 A.U and 20.7304 A.U	4.19	25.83 ± 2.60	Phases of Cell Cycle Arrest (CCL-119 cells [3]): S phase; percentage of DNA intensity in the tail (CCL-119 cells [4]; mean ± SEM): 14.24 ± 0.94%
